{
  "source": "PubChem BioAssay AID1598",
  "note": "Results filed as inconclusive are left out.",
  "data": [
    {"tested_on": "SMN2 vs SMN1 luciferase splicing reporter cells", "assay": "selective SMN2 exon splicing luciferase activators – cell-based, SMN2/SMN1 luciferase reporters (AID 1598)", "conditions": "measured here: SMN luciferase EC50 follow-up", "units": {"EC50": "nM"}, "values": [
      {"compound": "O=C1C=C2C(=CCOC2O)O1", "note": "(configuration not stated)", "EC50": 5000},
      {"compound": "NC12CC3CC(CC(C3)C1)C2", "EC50": 400},
      {"compound": "O[N+]1=CC=CCC1=S.On1ccccc1=S.[Zn]", "EC50": 1250},
      {"compound": "CC[C@@]1(O)C(=O)OCc2c1cc1n(c2=O)Cc2cc3ccccc3nc2-1", "EC50": 2500},
      {"compound": "CO[C@@]1(NC(=O)Cc2cccs2)C(=O)N2C(C(=O)O)=C(COC(N)=O)CS[C@@H]21", "EC50": 2500},
      {"compound": "CC(C(=O)O)c1ccc(N2Cc3ccccc3C2=O)cc1", "note": "(configuration not stated)", "EC50": 600},
      {"compound": "CC[C@@]1(O)C[C@H](OC2CC(N(C)C)C(OC3CC(O)C(OC4CCC(=O)C(C)O4)C(C)O3)C(C)O2)c2c(cc3c(c2O)C(=O)c2c(O)cccc2C3=O)[C@H]1C(=O)OC", "note": "(some centres not stated)", "EC50": 7000}
    ]}
  ]
}
